Experimental data published in patent publication US9980943B2, “Methods of treating muscular dystrophy” (BOARD OF REGENTS OF THE NEVADA SYSTEM OF HIGHER EDUCATION, …, priority 2013, dated 2018).

How the values were obtained:
Format in all cases: cell-based, mouse
[1] = system: α7 integrin (LacZ reporter in α7+/LacZ myotubes); experiment: Myotube α7 integrin FDG assay (Burkin assay in myotubes, 96-well); details: myotubes
[2] = system: α7 integrin (LacZ reporter in α7βgal+/− myoblasts); experiment: Myoblast α7+/LacZ integrin FDG assay (Burkin assay in myoblasts, 96-well); details: α7+/LacZ myoblasts, 96-well
[3] = system: β-galactosidase in CMV-LacZ C2C12 myotubes; experiment: CMV-LacZ secondary screen in C2C12 myotubes (β-Gal stabilizing assay); details: for CMV-LACZ in Myotubes, signal relative to DMSO: C2C12 CMV-LacZ myotubes, fold relative to DMSO; for CMV-LACZ in Myotubes (β-galactosidase activity relative to DMSO): CMV-LacZ C2C12 myotubes, 96-well format
How it was run: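 β-gal stabilization was measured in C2C12 myoblasts or myotubes stably transfected with a CMV-driven LacZ construct, using the FDG β-gal assay. Compounds were tested in dose-response at 0.5, 1, 5, 10, 20 and 40 μM, with two replicates per point.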

SMILES | Burkin Assay in Myotubes (signal relative to DMSO) ([1]; 0.5 uM) | Burkin Assay in Myotubes (signal relative to DMSO) ([1]; 1 uM) | Burkin Assay in Myotubes (signal relative to DMSO) ([1]; 5 uM) | Burkin Assay in Myotubes (signal relative to DMSO) ([1]; 10 uM) | Burkin Assay in Myotubes (signal relative to DMSO) ([1]; 20 uM) | Burkin Assay in Myotubes (signal relative to DMSO) ([1]; 40 uM) | Burkin Assay in Myoblasts, value relative to DMSO ([2]; 0.5 uM) | Burkin Assay in Myoblasts, value relative to DMSO ([2]; 1 uM) | Burkin Assay in Myoblasts, value relative to DMSO ([2]; 5 uM) | Burkin Assay in Myoblasts, value relative to DMSO ([2]; 10 uM) | Burkin Assay in Myoblasts, value relative to DMSO ([2]; 20 uM) | Burkin Assay in Myoblasts, value relative to DMSO ([2]; 40 uM) | CMV-LACZ in Myotubes, signal relative to DMSO ([3]; 5 uM) | CMV-LACZ in Myotubes, signal relative to DMSO ([3]; 10 uM) | CMV-LACZ in Myotubes, signal relative to DMSO ([3]; 20 uM) | CMV-LACZ in Myotubes, signal relative to DMSO ([3]; 40 uM) | CMV-LACZ in Myotubes (β-galactosidase activity relative to DMSO) ([3]; 5 uM) | CMV-LACZ in Myotubes (β-galactosidase activity relative to DMSO) ([3]; 10 uM) | CMV-LACZ in Myotubes (β-galactosidase activity relative to DMSO) ([3]; 20 uM) | CMV-LACZ in Myotubes (β-galactosidase activity relative to DMSO) ([3]; 40 uM) | also measured
CNC(=S)N1CCC(NC(=O)C(Cc2ccc(F)cc2)NC(C)=O)CC1 (stereo not shown) [MLS000710130-01] | 0.9811 | 0.8524 | 0.6183 | 0.6452 | 1.044 | 1.064 | 0.9666 | 1.103 | 1.006 | 1.036 | 0.8326 | 0.8689 | 0.8144 | 0.8646 | 0.9864 | 0.9336 |  |  |  |  | 
O=C(NCCCn1ccnc1)/C(=C/c1cccs1)NC(=O)c1ccco1 [MLS000712769-01] | 0.9746 | 0.8428 | 1.2524 | 0.9038 | 0.9219 | 0.9817 | 1.055 | 1.059 | 0.9476 | 0.9286 | 0.7697 | 0.7893 | 0.9651 | 1.071 | 0.9141 | 0.8582 |  |  |  |  | 
CS(=O)(=O)N(Cc1ccc(C(=O)NC2CCCC2)cc1)c1ccccc1 [MLS000714175-01] | 1.086 | 1.061 | 1.131 | 1.013 | 1.119 | 1.022 | 0.5383 | 0.975 | 1.1625 | 1.06 | 0.9936 | 0.9626 |  |  |  |  | 0.9319 | 1.097 | 1.124 | 0.971 | 
COCCN1C=C(C(=O)OC)C(c2ccccc2Cl)C(C(=O)OC)=C1 [MLS000718886-01] | 0.9819 | 0.9591 | 1.068 | 0.9981 | 0.938 | 0.9785 | 1.052 | 0.9394 | 1.087 | 0.9661 | 0.9124 | 0.8139 |  |  |  |  | 0.9787 | 0.9804 | 0.8798 | 0.8355 | 
C/C(=N/OC(=O)CC(C)C)c1cc(-c2ccc(Cl)cc2)no1 [MLS000721030-01] | 0.9757 | 1.051 | 1.121 | 1.2344 | 1.1412 | 1.205 | 0.9673 | 0.9348 | 1.027 | 1.166 | 1.025 | 1.122 |  |  |  |  | 1.111 | 0.9655 | 0.9276 | 0.7917 | 
COC(=O)Cc1c(O)ccn(Cc2ccc3c(c2)OCO3)c1=O [MLS000721525-01] | 0.6646 | 0.9136 | 0.6693 | 0.9806 | 0.8968 | 1.047 | 1.086 | 1.086 | 0.9834 | 1.01 | 0.9936 | 0.985 | 0.866 | 1.036 | 0.8409 | 0.9127 |  |  |  |  | 
N#Cc1ccc(OCC(O)CS(=O)(=O)c2ccccc2)cc1 (stereo not shown) [MLS000721584-01] |  |  |  |  |  |  |  |  |  |  |  |  | 0.9573 | 0.9071 | 1.133 | 1.1019 |  |  |  |  | Burkin Assay in Myotubes, α7 integrin LacZ reporter signal relative to DMSO ([1]; 0.5 uM): 0.9148; Burkin Assay in Myotubes, α7 integrin LacZ reporter signal relative to DMSO ([1]; 1 uM): 0.9833; Burkin Assay in Myotubes, α7 integrin LacZ reporter signal relative to DMSO ([1]; 5 uM): 0.8802; Burkin Assay in Myotubes, α7 integrin LacZ reporter signal relative to DMSO ([1]; 10 uM): 0.8867; Burkin Assay in Myotubes, α7 integrin LacZ reporter signal relative to DMSO ([1]; 20 uM): 0.9155; Burkin Assay in Myotubes, α7 integrin LacZ reporter signal relative to DMSO ([1]; 40 uM): 0.9927; Burkin Assay in Myoblasts, signal relative to DMSO ([2]; 0.5 uM): 0.933; Burkin Assay in Myoblasts, signal relative to DMSO ([2]; 1 uM): 0.8525; Burkin Assay in Myoblasts, signal relative to DMSO ([2]; 5 uM): 1.03; Burkin Assay in Myoblasts, signal relative to DMSO ([2]; 10 uM): 0.9846; Burkin Assay in Myoblasts, signal relative to DMSO ([2]; 20 uM): 0.8663; Burkin Assay in Myoblasts, signal relative to DMSO ([2]; 40 uM): 0.7628
O=Cc1cnc(N2CCCCC2)s1 [MLS000721730-01] | 0.9195 | 1.064 | 0.8563 | 1.025 | 0.877 | 1.071 | 0.8377 | 0.8197 | 0.8157 | 0.8824 | 0.827 | 0.9342 |  |  |  |  | 0.8504 | 0.9207 | 0.9311 | 1.031 | 
O=S(=O)(NCC(c1ccco1)N1CCOCC1)c1ccc(Cl)cc1 (stereo not shown) [MLS000724709-01] | 0.9961 | 1.467 | 1.04 | 1.002 | 0.885 | 0.9768 | 0.9899 | 0.9554 | 0.7389 | 0.779 | 0.486 | 0.5536 |  |  |  |  | 0.8422 | 0.8828 | 1.054 | 1.125 | 
CC(C)N(CCO)C(=O)CCc1nnc(CCCc2ccccc2)o1 [MLS000733703-01] | 1.063 | 1.128 | 0.8779 | 1.147 | 0.9957 | 0.894 | 0.988 | 0.9592 | 0.8919 | 0.8734 | 0.8635 | 0.8463 | 1.1188 | 0.8654 | 0.9583 | 0.7965 |  |  |  |  | 
